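Values below derive from 48-hour exposures of cells grown in 96-well plates, with endpoints linearly interpolated between the two concentrations bracketing the appropriate inhibition level. TGI denotes the concentration required for complete inhibition of growth.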
How the values were obtained:
Assay in all cases: DTP human tumour cell line panel, 48 h
786-0 renal = test system: 786-0 renal
A549 NSCLC = test system: A549 NSCLC
ACHN renal = test system: ACHN renal
BT-549 breast = test system: BT-549 breast
CAKI-1 renal = test system: CAKI-1 renal
CCRF-CEM leukemia = test system: CCRF-CEM leukemia
COLO 205 colon = test system: COLO 205 colon
DU-145 prostate = test system: DU-145 prostate
EKVX NSCLC = test system: EKVX NSCLC
HCT-116 colon = test system: HCT-116 colon
HCT-15 colon = test system: HCT-15 colon
HL-60(TB) leukemia = test system: HL-60(TB) leukemia
HOP-62 NSCLC = test system: HOP-62 NSCLC
HOP-92 NSCLC = test system: HOP-92 NSCLC
HS 578T breast = test system: HS 578T breast
HT29 colon = test system: HT29 colon
IGROV1 ovarian = test system: IGROV1 ovarian
K-562 leukemia = test system: K-562 leukemia
KM12 colon = test system: KM12 colon
LOX IMVI melanoma = test system: LOX IMVI melanoma
M14 melanoma = test system: M14 melanoma
MCF7 breast = test system: MCF7 breast
MDA-MB-231 breast = test system: MDA-MB-231 breast
MDA-MB-435 = test system: MDA-MB-435
MDA-N = test system: MDA-N
MOLT-4 leukemia = test system: MOLT-4 leukemia
NCI-H226 lung = test system: NCI-H226 lung
NCI-H23 lung = test system: NCI-H23 lung
NCI-H460 lung = test system: NCI-H460 lung
NCI-H522 lung = test system: NCI-H522 lung
NCI/ADR-RES ovarian = test system: NCI/ADR-RES ovarian
OVCAR-3 ovarian = test system: OVCAR-3 ovarian
OVCAR-4 ovarian = test system: OVCAR-4 ovarian
OVCAR-5 ovarian = test system: OVCAR-5 ovarian
OVCAR-8 ovarian = test system: OVCAR-8 ovarian
PC-3 prostate = test system: PC-3 prostate
RXF 393 renal = test system: RXF 393 renal
SF-268 CNS = test system: SF-268 CNS
SF-295 CNS = test system: SF-295 CNS
SF-539 CNS = test system: SF-539 CNS
SK-MEL-28 melanoma = test system: SK-MEL-28 melanoma
SK-MEL-5 melanoma = test system: SK-MEL-5 melanoma
SK-OV-3 ovarian = test system: SK-OV-3 ovarian
SN12C renal = test system: SN12C renal
SNB-19 CNS = test system: SNB-19 CNS
SNB-75 CNS = test system: SNB-75 CNS
SR leukemia = test system: SR leukemia
SW-620 colon = test system: SW-620 colon
T-47D breast = test system: T-47D breast
TK-10 renal = test system: TK-10 renal
U251 CNS = test system: U251 CNS
UACC-257 melanoma = test system: UACC-257 melanoma
UACC-62 melanoma = test system: UACC-62 melanoma
UO-31 renal = test system: UO-31 renal
MALME-3M melanoma = test system: MALME-3M melanoma
SK-MEL-2 melanoma = test system: SK-MEL-2 melanoma
A498 renal = test system: A498 renal
HCC-2998 colon = test system: HCC-2998 colon
RPMI-8226 leukemia = test system: RPMI-8226 leukemia

## CC1=C(C(=O)OCc2ccncc2)C(C2=C(C)SCCS2)C(C(=O)OCc2ccncc2)=C(C)N1
786-0 renal
  TGI: > 100 µM
A549 NSCLC
  TGI: > 100 µM
ACHN renal
  TGI: > 100 µM
BT-549 breast
  TGI: 42.2 µM
CAKI-1 renal
  TGI: > 100 µM
CCRF-CEM leukemia
  TGI: 59.8 µM
COLO 205 colon
  TGI: > 100 µM
DU-145 prostate
  TGI: > 100 µM
EKVX NSCLC
  TGI: > 100 µM
HCT-116 colon
  TGI: 32.2 µM
HCT-15 colon
  TGI: 64.7 µM
HL-60(TB) leukemia
  TGI: 79.3 µM
HOP-62 NSCLC
  TGI: 58.6 µM
HOP-92 NSCLC
  TGI: 31.5 µM
HS 578T breast
  TGI: 58.3 µM
HT29 colon
  TGI: 40 µM
IGROV1 ovarian
  TGI: > 100 µM
K-562 leukemia
  TGI: 59.2 µM
KM12 colon
  TGI: 47.5 µM
LOX IMVI melanoma
  TGI: 35.8 µM
M14 melanoma
  TGI: 71 µM
MCF7 breast
  TGI: 52 µM
MDA-MB-231 breast
  TGI: 91.9 µM
MDA-MB-435
  TGI: 38.9 µM
MDA-N
  TGI: 72.8 µM
MOLT-4 leukemia
  TGI: 49.2 µM
NCI-H226 lung
  TGI: 42.7 µM
NCI-H23 lung
  TGI: 76.5 µM
NCI-H460 lung
  TGI: 73.5 µM
NCI-H522 lung
  TGI: 54 µM
NCI/ADR-RES ovarian
  TGI: > 100 µM
OVCAR-3 ovarian
  TGI: 38.8 µM
OVCAR-4 ovarian
  TGI: > 100 µM
OVCAR-5 ovarian
  TGI: > 100 µM
OVCAR-8 ovarian
  TGI: > 100 µM
PC-3 prostate
  TGI: 52.4 µM
RXF 393 renal
  TGI: 27.4 µM
SF-268 CNS
  TGI: > 100 µM
SF-295 CNS
  TGI: 38 µM
SF-539 CNS
  TGI: 33 µM
SK-MEL-28 melanoma
  TGI: 34 µM
SK-MEL-5 melanoma
  TGI: 28.6 µM
SK-OV-3 ovarian
  TGI: 88 µM
SN12C renal
  TGI: 70.6 µM
SNB-19 CNS
  TGI: 87.5 µM
SNB-75 CNS
  TGI: 66.6 µM
SR leukemia
  TGI: > 100 µM
SW-620 colon
  TGI: 64.6 µM
T-47D breast
  TGI: 42.8 µM
TK-10 renal
  TGI: > 100 µM
U251 CNS
  TGI: 33.2 µM
UACC-257 melanoma
  TGI: 50.1 µM
UACC-62 melanoma
  TGI: 73.6 µM
UO-31 renal
  TGI: 37.9 µM

## COc1ccc(Nc2nn3c(=O)c4c(C)c(C)sc4nc3s2)cc1
786-0 renal
  TGI: 51 µM
A549 NSCLC
  TGI: 38.5 µM
ACHN renal
  TGI: > 100 µM
BT-549 breast
  TGI: > 100 µM
CAKI-1 renal
  TGI: > 100 µM
CCRF-CEM leukemia
  TGI: > 100 µM
COLO 205 colon
  TGI: > 100 µM
DU-145 prostate
  TGI: 34.5 µM
HCT-116 colon
  TGI: 60.5 µM
HCT-15 colon
  TGI: > 100 µM
HL-60(TB) leukemia
  TGI: > 100 µM
HOP-62 NSCLC
  TGI: 76.8 µM
HOP-92 NSCLC
  TGI: 69.2 µM
HS 578T breast
  TGI: > 100 µM
HT29 colon
  TGI: > 100 µM
IGROV1 ovarian
  TGI: > 100 µM
K-562 leukemia
  TGI: > 100 µM
KM12 colon
  TGI: > 100 µM
LOX IMVI melanoma
  TGI: > 100 µM
M14 melanoma
  TGI: > 100 µM
MALME-3M melanoma
  TGI: 89 µM
MCF7 breast
  TGI: > 100 µM
MDA-MB-231 breast
  TGI: > 100 µM
MDA-MB-435
  TGI: > 100 µM
MDA-N
  TGI: > 100 µM
MOLT-4 leukemia
  TGI: > 100 µM
NCI-H226 lung
  TGI: > 100 µM
NCI-H23 lung
  TGI: 46.9 µM
NCI-H460 lung
  TGI: > 100 µM
NCI-H522 lung
  TGI: 67.1 µM
NCI/ADR-RES ovarian
  TGI: > 100 µM
OVCAR-3 ovarian
  TGI: 78.8 µM
OVCAR-4 ovarian
  TGI: 48.3 µM
OVCAR-5 ovarian
  TGI: > 100 µM
OVCAR-8 ovarian
  TGI: > 100 µM
PC-3 prostate
  TGI: > 100 µM
RXF 393 renal
  TGI: 36.7 µM
SF-268 CNS
  TGI: > 100 µM
SF-295 CNS
  TGI: > 100 µM
SF-539 CNS
  TGI: > 100 µM
SK-MEL-2 melanoma
  TGI: > 100 µM
SK-MEL-28 melanoma
  TGI: > 100 µM
SK-MEL-5 melanoma
  TGI: > 100 µM
SK-OV-3 ovarian
  TGI: > 100 µM
SN12C renal
  TGI: > 100 µM
SNB-19 CNS
  TGI: > 100 µM
SNB-75 CNS
  TGI: 49.8 µM
SR leukemia
  TGI: > 100 µM
SW-620 colon
  TGI: > 100 µM
T-47D breast
  TGI: 63.5 µM
TK-10 renal
  TGI: 78.8 µM
U251 CNS
  TGI: > 100 µM
UACC-257 melanoma
  TGI: > 100 µM
UACC-62 melanoma
  TGI: > 100 µM
UO-31 renal
  TGI: 35.3 µM

## O=c1[nH][nH]c(=O)n1Cc1cccc(Cn2c(=O)[nH][nH]c2=O)c1
786-0 renal
  TGI: > 100 µM
A498 renal
  TGI: > 100 µM
A549 NSCLC
  TGI: > 100 µM
BT-549 breast
  TGI: > 100 µM
CAKI-1 renal
  TGI: > 100 µM
CCRF-CEM leukemia
  TGI: > 100 µM
COLO 205 colon
  TGI: > 100 µM
DU-145 prostate
  TGI: > 100 µM
EKVX NSCLC
  TGI: > 100 µM
HCC-2998 colon
  TGI: > 100 µM
HCT-116 colon
  TGI: > 100 µM
HCT-15 colon
  TGI: > 100 µM
HL-60(TB) leukemia
  TGI: > 100 µM
HS 578T breast
  TGI: > 100 µM
HT29 colon
  TGI: > 100 µM
K-562 leukemia
  TGI: > 100 µM
KM12 colon
  TGI: > 100 µM
LOX IMVI melanoma
  TGI: > 100 µM
M14 melanoma
  TGI: > 100 µM
MALME-3M melanoma
  TGI: > 100 µM
MCF7 breast
  TGI: > 100 µM
MDA-MB-231 breast
  TGI: > 100 µM
MDA-MB-435
  TGI: > 100 µM
MDA-N
  TGI: > 100 µM
MOLT-4 leukemia
  TGI: > 100 µM
NCI-H226 lung
  TGI: > 100 µM
NCI-H23 lung
  TGI: > 100 µM
NCI-H460 lung
  TGI: > 100 µM
NCI-H522 lung
  TGI: > 100 µM
NCI/ADR-RES ovarian
  TGI: > 100 µM
OVCAR-3 ovarian
  TGI: > 100 µM
OVCAR-4 ovarian
  TGI: > 100 µM
OVCAR-5 ovarian
  TGI: > 100 µM
OVCAR-8 ovarian
  TGI: > 100 µM
PC-3 prostate
  TGI: > 100 µM
RPMI-8226 leukemia
  TGI: > 100 µM
RXF 393 renal
  TGI: > 100 µM
SF-268 CNS
  TGI: > 100 µM
SF-539 CNS
  TGI: > 100 µM
SK-MEL-2 melanoma
  TGI: > 100 µM
SK-MEL-28 melanoma
  TGI: > 100 µM
SK-MEL-5 melanoma
  TGI: > 100 µM
SK-OV-3 ovarian
  TGI: > 100 µM
SN12C renal
  TGI: > 100 µM
SNB-19 CNS
  TGI: > 100 µM
SNB-75 CNS
  TGI: > 100 µM
SR leukemia
  TGI: > 100 µM
SW-620 colon
  TGI: > 100 µM
T-47D breast
  TGI: > 100 µM
TK-10 renal
  TGI: > 100 µM
U251 CNS
  TGI: > 100 µM
UACC-257 melanoma
  TGI: > 100 µM
UACC-62 melanoma
  TGI: > 100 µM
UO-31 renal
  TGI: > 100 µM

From PubChem BioAssay (NCI)
